Each structure is given as a SMILES string.

The target in this assay is T1, Human Glucocorticoid Receptor (GR) (Homo sapiens, UniProt P04150).
T1 construct: The full length GR was diluted to a final concentration of 3.3% (0.495 mg/ml) in assay buffer
T1 sequence (P04150 1-777): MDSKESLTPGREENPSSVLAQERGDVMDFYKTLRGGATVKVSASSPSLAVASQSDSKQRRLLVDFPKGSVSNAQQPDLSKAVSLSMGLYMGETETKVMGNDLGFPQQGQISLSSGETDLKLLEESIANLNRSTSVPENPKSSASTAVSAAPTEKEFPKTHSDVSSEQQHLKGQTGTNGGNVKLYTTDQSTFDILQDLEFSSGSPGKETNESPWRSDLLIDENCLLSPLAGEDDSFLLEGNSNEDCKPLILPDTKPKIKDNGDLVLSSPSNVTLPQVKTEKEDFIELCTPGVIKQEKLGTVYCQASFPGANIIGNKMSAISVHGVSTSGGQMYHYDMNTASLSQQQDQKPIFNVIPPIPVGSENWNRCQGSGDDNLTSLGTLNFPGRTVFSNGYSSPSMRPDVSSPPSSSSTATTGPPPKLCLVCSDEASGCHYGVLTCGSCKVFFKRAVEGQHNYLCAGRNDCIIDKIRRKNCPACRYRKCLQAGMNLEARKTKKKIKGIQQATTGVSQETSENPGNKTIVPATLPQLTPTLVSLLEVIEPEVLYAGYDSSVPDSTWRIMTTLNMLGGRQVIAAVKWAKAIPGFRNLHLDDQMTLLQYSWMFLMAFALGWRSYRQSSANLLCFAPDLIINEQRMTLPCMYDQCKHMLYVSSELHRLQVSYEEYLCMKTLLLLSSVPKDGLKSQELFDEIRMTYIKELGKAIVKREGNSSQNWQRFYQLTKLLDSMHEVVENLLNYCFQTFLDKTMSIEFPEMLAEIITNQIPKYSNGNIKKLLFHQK
The assay can be described thus: Human Glucocorticoid Receptor (GR) radioligand binding assay (3H-dexamethasone competition). The following applies: full length GR; 7 nM 3H-dexamethasone; 2 h at room temperature. How it is done: Human Glucocorticoid Receptor (GR) Assay
The radioligand GR binding assay is based on a competition assay using ^3H-labeled Dexamethasone. Dexamethasone is known to bind in the ligand binding domain of GR and compete for binding with endogenous ligands like e.g. cortisol (Necela, 2003). In the GR radioligand binding assay, test compounds were serially diluted in semi-log steps (10 concentrations) with a final concentration of 10 μM. Test compounds (1 μL) and controls (1 μL) in 100% DMSO were added to 96 Greiner V-bottom polypropylene plates. 0% control was 6.7% DMSO (final concentration in assay) and 100% control was 6.7 μM Dexamethasone.
The full length GR was diluted to a final concentration of 3.3% (0.495 mg/ml) in assay buffer (20 mM Tris-HCl, 1 mM EDTA, 10% (w/v) Glycerol, 20 mM Sodium molybdate, pH 7.4). 45 μL of GR was added to each well and the plates were incubated for 15 min at room temperature.
^3H-dexamethasone solution was diluted to a concentration of 70 nM in assay buffer (7 nM final assay concentration) and 5 μL was added to each well. The samples were mixed for 5 min using a plate shaker at 700 rpm, before incubation for 2 h at room temperature.
50 μL ice-cold charcoal solution (pH 7.4:2% Charcoal, 0.2% Dextran T70 in 20 mM Tris-HCl, 1 mM EDTA and 20 mM Sodium molybdate) was added to each well and the samples were mixed on plate shaker for 5 minutes.
The plate was then centrifuged for 1.5 min at 1500 rpm, the samples (80 μL) were is transferred from each well to a filter plate (Millipore, 0.45 μm, MHVBN45) on a vacuum manifold and then collected into new plates (Greiner, 96 well white/transparent, 655095). The filter plate was washed once with 20 μl of water and then 100 μL of scintillation liquid was added to each well and mixed by incubation on plate shaker for 5 min. Radioactivity was measured in a 1450 Microbeta Trilux Reader (Wallac) counting cpm for 2 minutes per well. The data obtained from each replicate experiment were analysed using the software ActivityBase, version 5.4.3 (ID Business Solutions Ltd) and IC50 values were calculated. Ref: Necela, B M, Cidlowski, J A, Trends Pharmacol Sci, 24: 58, 2003
`C[C@H](NC(=O)C(C)(F)F)[C@H](Oc1ccc2c(cnn2-c2cccc(C(=O)N(C)CC(N)=O)c2)c1)c1ccccc1` [Example 18]: the IC50 (commonly the concentration that gives 50% inhibition) worked out at 4.22 nM.

As for `C[C@H](NC(=O)C(C)(F)F)[C@H](Oc1ccc2c(cnn2-c2cccc(C(=O)NCC(N)=O)c2)c1)c1ccccc1` [Example 4, N-(2-amino-2-oxoethyl)-3-[5-({(1R,2S)-2-[(2,2-difluoropropanoyl)amino]-1-phenylpropyl}oxy)-1H-indazol-1-yl]benzamide], the IC50 is 1.61 nM.

On to `C[C@H](NC(=O)c1cccc(-n2ncc3cc(O[C@H](c4ccccc4)[C@H](C)NC(=O)C(C)(F)F)ccc32)c1)C(N)=O` [Example 5, N-[(1S)-2-amino-1-methyl-2-oxoethyl]-3-[5-({(1R,2S)-2-[(2,2-difluoropropanoyl)amino]-1-phenylpropyl}oxy)-1H-indazol-1-yl]benzamide], for which the IC50 was 1.93 nM.

In the case of `C[C@H](NC(=O)C(C)(F)F)[C@H](Oc1ccc2c(cnn2-c2cccc(C(=O)N3CCC[C@@H]3CO)c2)c1)c1ccccc1` [Example 8, 2,2-Difluoro-N-[(1S,2R)-2-{[1-(3-{[(2R)-2-(hydroxymethyl)pyrrolidin-1-yl]carbonyl}phenyl)-1H-indazol-5-yl]oxy}-1-methyl-2-phenylethyl]propanamide], the IC50 is 6.88 nM.

The values above are taken from US20100080786A1, “Phenyl or Pyridinyl Substituted Indazoles Derivatives” (priority 2008, published 2010).
